Laboratory results taken from patent publication US20250032623A1, “HETEROBIFUNCTIONAL COMPOUNDS AND THEIR USE IN TREATING DISEASE” (HALDA THERAPEUTICS OPCO, INC., priority 2021, published 2025).
pKd: −log10 of the molar value. Read-outs that look alike come from different tables or passages of the source.

Experiments:
HEK293 cells = assay: Cellular growth inhibition assay (CellTiter-Glo), HEK293 cells; format: cell-based; details: three days compound treatment, CellTiter-Glo 2.0, read-out: CTG HEK293 GI50
Experimental: (§1) Exemplary compounds were tested for ability to inhibit the proliferation of HEK293 cells or HeLa cells.
(§2) HEK293 and HeLa cells were cultured in DMEM medium supplemented with 10% fetal bovine serum and 1% Penn/Strep. Cells were seeded in white 384-well plates at 500 cells/well in […] complete medium. Following seeding, plates were spun at 300×g for three minutes and cultured at 37° C. with 5% CO2 in a humidified tissue culture incubator.
(§3) After 24 hours, compounds were titrated in 100% DMSO and diluted in complete cell culture medium. […] of compound/media mixture was added to cells to bring total volume in well to […]. DMSO alone was used as a negative control. P lates were then spun at 300×g for three minutes and stored at 37° C. with 5% CO2 for three days.
(§4) On Day 0 and Day 3 of compound treatment, cell viability was quantified with CellTiter-Glo 2.0 reagent (Promega). After equilibrating microplates at room temperature for 30 minutes, 25 μL CellTiter-Glo 2.0 reagent was dispensed into each well to bring total volume to […]. Plates were mixed on shaker for 2 minutes at 500 rpm, followed by a 10-minute incubation at room temperature. Following a quick spin, luminescence readings were measured with an EnVision Plate Reader. Data was normalized to DMSO treated Day 0 and Day 3 readings. A four-parameter non-linear regression curve fit was applied to dose-response data in GraphPad Prism data analysis software to determine the half maximal growth inhibitory concentration (GI50) for each compound.

HeLa cells = assay: Cellular growth inhibition assay (CellTiter-Glo), HeLa cells; format: cell-based; details: three days compound treatment, CellTiter-Glo 2.0, read-out: CTG HELA GI50
Experimental: as §1, §2, §3, §4

EGFR = biological target: T1, EGFR (Homo sapiens, UniProt P00533); assay: KdELECT binding assay, EGFR
T1 construct: purchased
Experimental: Exemplary compounds were tested for ability to bind to EGFR.
Compounds were tested using a KdELECT assay. Kinase-tagged T7 phage strains were prepared in an E. coli host derived from the BL21 strain. E. coli were grown to log-phase and infected with T7 phage and incubated with shaking at 32° C. until lysis. The lysates were centrifuged and filtered to remove cell debris. The remaining kinases were produced in HEK-293 cells and subsequently tagged with DNA for qPCR detection. Streptavidin-coated magnetic beads were treated with biotinylated small molecule ligands for 30 minutes at room temperature to generate affinity resins for kinase assays. The liganded beads were blocked with excess biotin and washed with blocking buffer (SeaBlock (Pierce), 1% BSA, 0.05% Tween 20, 1 mM DTT) to remove unbound ligand and to reduce non-specific binding. Binding reactions were assembled by combining kinases, liganded affinity beads, and test compounds in 1× binding buffer (20% SeaBlock, 0.17×PBS, 0.05% Tween 20, 6 mM DTT). Test compounds were prepared as 111× stocks in 100% DMSO. Kd values were determined using an 11-point 3-fold compound dilution series with three DMSO control points. All compounds for Kd measurements are distributed by acoustic transfer (non-contact dispensing) in 100% DMSO. The compounds were then diluted directly into the assays such that the final concentration of DMSO was 0.9%. All reactions performed in polypropylene 384-well plate. Each was a final volume of 0.02 mL. The assay plates were incubated at room temperature with shaking for 1 hour and the affinity beads were washed with wash buffer (1× PBS, 0.05% Tween 20). The beads were then re-suspended in elution buffer (1× PBS, 0.05% Tween 20, 0.5 μM nonbiotinylated affinity ligand) and incubated at room temperature with shaking for 30 minutes. The kinase concentration in the eluates was measured by qPCR.

T1 sequence (P00533 25-1210): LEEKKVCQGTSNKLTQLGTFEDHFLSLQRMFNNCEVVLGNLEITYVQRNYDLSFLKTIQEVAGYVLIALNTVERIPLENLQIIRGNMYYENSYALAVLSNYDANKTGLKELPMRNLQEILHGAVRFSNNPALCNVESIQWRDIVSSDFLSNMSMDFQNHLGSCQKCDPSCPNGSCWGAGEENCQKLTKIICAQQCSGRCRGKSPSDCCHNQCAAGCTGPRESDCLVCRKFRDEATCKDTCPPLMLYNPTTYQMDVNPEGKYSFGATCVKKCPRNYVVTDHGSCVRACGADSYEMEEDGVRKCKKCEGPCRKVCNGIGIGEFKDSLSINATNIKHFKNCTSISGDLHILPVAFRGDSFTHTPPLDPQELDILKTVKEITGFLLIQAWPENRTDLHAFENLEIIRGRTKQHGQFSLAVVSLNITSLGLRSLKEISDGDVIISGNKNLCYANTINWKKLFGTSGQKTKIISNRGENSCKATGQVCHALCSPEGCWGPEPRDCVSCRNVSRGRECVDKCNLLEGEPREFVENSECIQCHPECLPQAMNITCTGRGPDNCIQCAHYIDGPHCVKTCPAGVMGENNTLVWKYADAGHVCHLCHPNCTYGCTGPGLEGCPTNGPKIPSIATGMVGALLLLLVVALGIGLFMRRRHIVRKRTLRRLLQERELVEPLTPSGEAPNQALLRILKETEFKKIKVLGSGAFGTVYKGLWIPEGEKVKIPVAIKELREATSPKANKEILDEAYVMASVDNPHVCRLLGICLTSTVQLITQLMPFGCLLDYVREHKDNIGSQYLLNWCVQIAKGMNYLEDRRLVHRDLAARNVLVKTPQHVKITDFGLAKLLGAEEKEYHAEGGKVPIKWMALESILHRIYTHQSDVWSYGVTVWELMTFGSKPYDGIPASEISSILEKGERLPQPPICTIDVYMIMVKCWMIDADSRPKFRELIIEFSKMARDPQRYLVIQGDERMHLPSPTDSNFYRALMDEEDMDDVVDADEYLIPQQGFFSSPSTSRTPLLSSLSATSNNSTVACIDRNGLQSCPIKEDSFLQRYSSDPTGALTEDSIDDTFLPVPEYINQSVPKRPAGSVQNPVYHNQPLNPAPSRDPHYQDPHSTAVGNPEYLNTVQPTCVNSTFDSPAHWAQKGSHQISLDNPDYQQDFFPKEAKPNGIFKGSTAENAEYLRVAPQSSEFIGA

| Compound | GI50 (HeLa cells; Homo sapiens, 72 h) [nM] | GI50 (HEK293 cells; Homo sapiens, 72 h) [nM] | further results |
| --- | --- | --- | --- |
| CC[C@@H]1C(=O)N(C)c2cnc(Nc3ccc(C(=O)NCCN(C)C/C=C/C(=O)NC4CN(c5nc(Nc6cn(C)nc6OC)c6ncn(C)c6n5)C[C@H]4F)cc3OC)nc2N1C1CCCC1 (stereo partly drawn) [Compound I-119, 4-[l[(7R)-8-cyclopentyl-7-ethyl-5-methyl-6-oxo-7H-pteridin-2-yl]amino]-N—[2-[ [(E)-4-[ [(3R,4R)-4-fluoro-1-[6-[(3-methoxy-1-methyl-pyrazol-4-yl)amino]-9-methyl-purin-2-yl]pyrrolidin-3-yl]amino]-4-oxo-but-2-enyl]-methyl-amino]ethyl]-3-methoxy-benzamide] |  | 1500 to 5000 |  |
| C=CC(=O)N[C@@H]1CN(c2nc(Nc3cn(CCOCCOCCNS(=O)(=O)c4ccc(Nc5ncc(Br)c(Nc6cccc(F)c6C(N)=O)n5)cc4)nc3OC)c3ncn(C)c3n2)C[C@H]1F [Compound I-142, 2-[[5-bromo-2-[4-[2-[2-[2-[4-[[2-1[(3R,4R)-3-fluoro-4-(prop-2-enoylamino)pyrrolidin-1-yl]-9-methyl-purin-6-yl]amino]-3-methoxy-pyrazol-1-yl]ethoxy]ethoxy]ethylsulfamoyl]anilino]pyrimidin-4-yl]amino]-6-fluoro-benzamide] |  |  | GI50 (HEK293 cells): > 5000 nM; GI50 (HeLa cells): 1500 to 5000 nM |
| Cc1c(CC(=O)N(C)C)ccc(NC(=O)c2nn([C@@H]3CCCN(C(=O)/C=C/CN(C)CCOCCOCC(=O)NCCCCn4nc(-c5ccc6oc(N)nc6c5)c5c(N)ncnc54)C3)c3ncnc(N)c23)c1C [Compound I-83, 4-amino-1-[(3R)-1-[(E)-4-[2-1[2-[2-[4-[4-amino-3-(2-amino-1,3-benzoxazol-5-yl)pyrazolo[3,4-d]pyrimidin-1-yl]butylamino]-2-oxo-ethoxy]ethoxy]ethyl-methyl-amino]but-2-enoyl]-3-piperidyl]-N-[4-[2-(dimethylamino)-2-oxo-ethyl]-2,3-dimethyl-phenyl]pyrazolo[3,4-d]pyrimidine-3-carboxamide] |  |  | GI50 (HEK293 cells): 1500 to 5000 nM; GI50 (HeLa cells): > 5000 nM |
| C=CC(=O)N[C@@H]1CN(c2nc(Nc3cn(CCOCCOCCOCCOCCON(C)C(=O)N4N=C(c5cc(F)ccc5F)SC4(CCCN)c4ccccc4)nc3OC)c3ncn(C)c3n2)C[C@H]1F (some centres unmarked) [Compound I-66] |  |  | pKd (EGFR): > 7.30 |
| C=CC(=O)N[C@@H]1CN(c2nc(Nc3cn(CCOCCOCCOc4ccc(CNc5cc(N6CCCC[C@H]6CCO)nc6c(CC)cnn56)cn4)nc3OC)c3ncn(C)c3n2)C[C@H]1F [Compound I-144, N-[(3R,4R)-1-[6-[[1-[2-[2-[2-[[5-1[[[3-ethyl-5-[(2S)-2-(2-hydroxyethyl)-1-piperidyl]pyrazolo[1,5-a]pyrimidin-7-yl]amino]methyl]-2-pyridyl]oxy]ethoxy]ethoxy]ethyl]-3-methoxy-pyrazol-4-yl]amino]-9-methyl-purin-2-yl]-4-fluoro-pyrrolidin-3-yl]prop-2-enamide] |  |  | GI50 (HEK293 cells): < 500 nM; GI50 (HeLa cells): < 500 nM |
| C=CC(=O)NC1CN(c2nc(Nc3cn(CCOCCOCCOCCOCCOCCOCCNC(=O)c4ccc(Nc5ncc6c(n5)N(C5CCCC5)[C@H](CC)C(=O)N6C)c(OC)c4)nc3OC)c3ncn(C)c3n2)C[C@H]1F (stereo partly drawn) [Compound I-114, 4-[[(7R)-8-cyclopentyl-7-ethyl-5-methyl-6-oxo-7H-pteridin-2-yl]amino]-N-[2-[2-[2-[2-[2-[2-[2-[4-[[2-[(3R)-3-fluoro-4-(prop-2-enoylamino)pyrrolidin-1-yl]-9-methyl-purin-6-yl]amino]-3-methoxy-pyrazol-1-yl]ethoxy]ethoxy]ethoxy]ethoxy]ethoxy]ethoxy]ethyl]-3-methoxy-benzamide] |  | 1500 to 5000 |  |
| CCc1cnn2c(NCc3ccc(OCCOCCOCCOCCOCCN(C)C/C=C/C(=O)N4CCN(c5nc(=O)n(-c6c(C)ccnc6C(C)C)c6nc(-c7c(O)cccc7F)c(F)cc56)[C@@H](C)C4)nc3)cc(N3CCCC[C@H]3CCO)nc12 [Compound I-76] | > 5000 | > 5000 |  |
| CC[C@@H]1C(=O)N(C)c2cnc(Nc3ccc(C(=O)NCCN(C)C/C=C/C(=O)Nc4cc(Nc5nccc(-c6cn(C)c7ccccc67)n5)c(OC)cc4N(C)CCN(C)C)cc3OC)nc2N1C1CCCC1 [Compound I-116, 4-[[(7R)-8-cyclopentyl-7-ethyl-5-methyl-6-oxo-7H-pteridin-2-yl]amino]-N-[2-[[(E)-4-1[2-[2-(dimethylamino)ethyl-methyl-amino]-4-methoxy-5-[[4-(1-methylindol-3-yl)pyrimidin-2-yl]amino]anilino]-4-oxo-but-2-enyl]-methyl-amino]ethyl]-3-methoxy-benzamide] |  | 1500 to 5000 |  |

Now from value to compound, other results behind:

| GI50 (HeLa cells; Homo sapiens, 72 h) [nM] | Compound | GI50 (HEK293 cells; Homo sapiens, 72 h) [nM] | further results |
| --- | --- | --- | --- |
| < 500 | C=CC(=O)N[C@@H]1CN(c2nc(Nc3cn(CCCCCCCCNS(=O)(=O)c4ccc(Nc5ncc(Br)c(Nc6cccc(F)c6C(N)=O)n5)cc4)nc3OC)c3ncn(C)c3n2)C[C@H]1F [Compound I-148, 2-[[5-bromo-2-[4-[8-[4-[[2-[(3R,4R)-3-fluoro-4-(prop-2-enoylamino)pyrrolidin-1-yl]-9-methyl-purin-6-yl]amino]-3-methoxy-pyrazol-1-yl]octylsulfamoyl]anilino]pyrimidin-4-yl]amino]-6-fluoro-benzamide] | < 500 |  |
| < 500 | CC[C@@H]1C(=O)N(C)c2cnc(Nc3ccc(C(=O)NCCCN4CCN(CCCN(C)C/C=C/C(=O)Nc5cc(Nc6nccc(-c7cn(C)c8ccccc78)n6)c(OC)cc5N(C)CCN(C)C)CC4)cc3OC)nc2N1C1CCCC1 [Compound I-151, 4-[[(7R)-8-cyclopentyl-7-ethyl-5-methyl-6-oxo-7H-pteridin-2-yl]amino]-N-[3-[4-[3-[[(E)-4-[2-[2-(dimethylamino)ethyl-methyl-amino]-4-methoxy-5-[[4-(1-methylindol-3-yl)pyrimidin-2-yl]amino]anilino]-4-oxo-but-2-enyl]-methyl-amino]propyl]piperazin-1-yl]propyl]-3-methoxy-benzamide] | 500 to 1500 |  |
| < 500 | C=CC(=O)N[C@@H]1CN(c2nc(Nc3cn(CCOCCOCCOCCOCCOc4ccc(CNc5cc(N6CCCC[C@H]6CCO)nc6c(CC)cnn56)cn4)nc3OC)c3ncn(C)c3n2)C[C@H]1F [Compound I-145, N-[(3R,4R)-1-[6-[[1-[2-[2-[2-[2-[2-[[5-[[[3-ethyl-5-[(2S)-2-(2-hydroxyethyl)-1-piperidyl]pyrazolo[1,5-a]pyrimidin-7-yl]amino]methyl]-2-pyridyl]oxy]ethoxy]ethoxy]ethoxy]ethoxy]ethyl]-3-methoxy-pyrazol-4-yl]amino]-9-methyl-purin-2-yl]-4-fluoro-pyrrolidin-3-yl]prop-2-enamide] | < 500 |  |
| 500 to 1500 | C=CC(=O)N[C@@H]1CN(c2nc(Nc3cn(CCCN4CCN(CCCOc5ccc(CNc6cc(N7CCCC[C@H]7CCO)nc7c(CC)cnn67)cn5)CC4)nc3OC)c3ncn(C)c3n2)C[C@H]1F [Compound I-147, N-[(3R,4R)-1-[6-[[1-[3-[4-[3-[[5-[[[3-ethyl-5-[(2S)-2-(2-hydroxyethyl)-1-piperidyl]pyrazolo[1,5-a]pyrimidin-7-yl]amino]methyl]-2-pyridyl]oxy]propyl]piperazin-1-yl]propyl]-3-methoxy-pyrazol-4-yl]amino]-9-methyl-purin-2-yl]-4-fluoro-pyrrolidin-3-yl]prop-2-enamide] | < 500 |  |
